Source: patent EP0524718A1, “Polyurethane hydrogel compositions for iontophoretic drug delivery” (GENSIA PHARMACEUTICALS, INC., priority 1991, dated 1993)

Assay: Drug stability in hydrogel matrix electrode pads (isocratic HPLC assay)
Type: physicochemical
Conditions: in Hypol Hydrogel matrix, room temperature and 4°C, after six months
Procedure: Stability of Arbutamine in electrode pads using the hydrogel matrix prepared from Hypol Hydrogel prepolymer was studied using the 3M Red Dot™ Electrode Construction. […] The matrix incorporating the drug was placed in the 3M Red Dot electrode (after removing the gel supplied with the electrode). The electrode was secured in an aluminum pouch with or without a nitrogen flush (as noted). Drug stability studies were carried out at room temperature and 4°C.

drug degradation: no significant drug degradation
SMILES: Cl.Oc1ccc(CCCCNCC(O)c2ccc(O)c(O)c2)cc1 (stereo not shown) [Arbutamine, 1-(3,4-dihydroxyphenyl)-2-(4-(4-hydroxyphenyl)butylamino)ethanol hydrochloride]
